Patent US9732075B2, “Benzimidazole-proline derivatives” (IDORSIA PHARMACEUTICALS LTD, priority 2012, dated 2017)

How the values were obtained:
human orexin-2 receptor = human orexin-2 receptor (Homo sapiens (Human), UniProt O43614); experiment: In vitro assay: intracellular calcium measurements (FLIPR), antagonistic activity; format: cell-based; details: CHO cells expressing human orexin-2 receptor, orexin-A agonist, geometric mean, read-out: IC50 Ox2
Method in brief: (§1)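 In this FLIPR calcium assay, antagonists were given 120 min on CHO cells with human OX1 or OX2 receptor before orexin-A (3 nM final) was added. Peak fluorescence was measured at 1 s intervals against the uninhibited agonist peak, and IC50s were averaged geometrically.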

human orexin-1 receptor = human orexin-1 receptor (Homo sapiens (Human), UniProt O43613); experiment: as above; format: cell-based; details: CHO cells expressing human orexin-1 receptor, orexin-A agonist, geometric mean, read-out: IC50 Ox1
Method in brief: as §1

human orexin-1 receptor, sequence (O43613 whole entry): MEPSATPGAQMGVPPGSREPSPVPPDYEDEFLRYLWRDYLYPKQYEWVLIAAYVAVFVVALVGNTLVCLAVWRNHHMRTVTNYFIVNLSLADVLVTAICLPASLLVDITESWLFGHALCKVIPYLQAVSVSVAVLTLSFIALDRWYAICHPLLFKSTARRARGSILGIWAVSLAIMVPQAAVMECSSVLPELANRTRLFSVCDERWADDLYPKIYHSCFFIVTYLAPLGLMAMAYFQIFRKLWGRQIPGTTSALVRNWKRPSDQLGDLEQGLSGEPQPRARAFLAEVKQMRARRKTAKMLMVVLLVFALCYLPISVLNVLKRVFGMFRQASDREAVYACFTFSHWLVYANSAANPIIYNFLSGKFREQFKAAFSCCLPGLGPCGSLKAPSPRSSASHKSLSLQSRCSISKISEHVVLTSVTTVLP
human orexin-2 receptor, sequence (O43614 whole entry): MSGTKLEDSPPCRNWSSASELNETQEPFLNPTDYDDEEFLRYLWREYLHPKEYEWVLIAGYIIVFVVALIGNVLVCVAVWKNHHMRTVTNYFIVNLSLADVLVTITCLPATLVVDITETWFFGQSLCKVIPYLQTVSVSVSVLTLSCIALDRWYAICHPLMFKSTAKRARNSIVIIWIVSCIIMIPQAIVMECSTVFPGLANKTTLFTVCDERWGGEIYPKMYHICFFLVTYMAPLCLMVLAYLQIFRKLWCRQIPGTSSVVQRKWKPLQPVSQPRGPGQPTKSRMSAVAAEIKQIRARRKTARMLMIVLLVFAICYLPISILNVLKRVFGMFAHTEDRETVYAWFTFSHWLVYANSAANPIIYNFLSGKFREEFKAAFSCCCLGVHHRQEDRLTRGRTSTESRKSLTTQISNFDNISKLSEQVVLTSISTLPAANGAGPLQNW

Compound | IC50 (human orexin-2 receptor) | IC50 (human orexin-1 receptor)
Cc1ccc(-c2ncccn2)c(C(=O)N2CCC[C@@]2(C)c2nc3cccc(C)c3[nH]2)c1 [Ex. 5.278] | 31 nM | 22 nM
COc1cc2nc([C@]3(C)CCCN3C(=O)c3cc(C)ccc3-c3ncccn3)[nH]c2cc1OC [Ex. 5.280] | 16 nM | 36 nM
Cc1ccc(-c2ncccn2)c(C(=O)N2CCC[C@@]2(C)c2nc3cc(OC(F)(F)F)ccc3[nH]2)c1 [Ex. 5.281] | 380 nM | 34 nM
Cc1ccc(-c2ncccn2)c(C(=O)N2CCC[C@@]2(C)c2nc3cc(F)c(Br)cc3[nH]2)c1 [Ex. 5.282] | 97 nM | 47 nM
Cc1ccc(-c2ncccn2)c(C(=O)N2CCC[C@@]2(C)c2nc3cc(C)c(C)cc3[nH]2)c1 [Ex. 5.284] | 18 nM | 10 nM
C[C@@]1(c2nc3cc(Cl)c(C(F)(F)F)cc3[nH]2)CCCN1C(=O)c1nc(-c2ccccc2)sc1-c1ccc(F)cc1 [Ex. 5.285] | 452 nM | 32 nM
Cc1ccccc1-c1nc(C(=O)N2CCC[C@@]2(C)c2nc3cc(Cl)c(C(F)(F)F)cc3[nH]2)c(-c2ccc(F)cc2)s1 [Ex. 5.286] | 4590 nM | 40 nM
Cc1cccc(-c2nc(C(=O)N3CCC[C@@]3(C)c3nc4cc(Cl)c(C(F)(F)F)cc4[nH]3)c(-c3ccc(F)cc3)s2)c1 [Ex. 5.287] | 1160 nM | 53 nM
Cc1ccc(-c2nc(C(=O)N3CCC[C@@]3(C)c3nc4cc(Cl)c(C(F)(F)F)cc4[nH]3)c(-c3ccc(F)cc3)s2)cc1 [Ex. 5.288] | 1340 nM | 38 nM
C[C@@]1(c2nc3cc(Cl)c(C(F)(F)F)cc3[nH]2)CCCN1C(=O)c1nc(-c2ccccc2F)sc1-c1ccc(F)cc1 [Ex. 5.289] | 532 nM | 38 nM
C[C@@]1(c2nc3cc(Cl)c(C(F)(F)F)cc3[nH]2)CCCN1C(=O)c1nc(-c2cccc(F)c2)sc1-c1ccc(F)cc1 [Ex. 5.290] | 2140 nM | 33 nM
C[C@@]1(c2nc3cc(Cl)c(C(F)(F)F)cc3[nH]2)CCCN1C(=O)c1nc(-c2ccc(F)cc2)sc1-c1ccc(F)cc1 [Ex. 5.291] | 347 nM | 48 nM
COc1cccc(-c2nc(C(=O)N3CCC[C@@]3(C)c3nc4cc(Cl)c(C(F)(F)F)cc4[nH]3)c(-c3ccc(F)cc3)s2)c1 [Ex. 5.292] | 671 nM | 34 nM
COc1ccc(-c2nc(C(=O)N3CCC[C@@]3(C)c3nc4cc(Cl)c(C(F)(F)F)cc4[nH]3)c(-c3ccc(F)cc3)s2)cc1 [Ex. 5.293] | 4040 nM | 77 nM
C[C@@]1(c2nc3ccc(C(F)(F)F)cc3[nH]2)CCCN1C(=O)c1nc(-c2ccccc2F)sc1-c1ccc(F)cc1 [Ex. 5.294] | 714 nM | 39 nM
C[C@@]1(c2nc3cc(C(F)(F)F)ccc3[nH]2)CCCN1C(=O)c1cc(-c2cccc(C#N)c2)ccc1-n1nccn1 [Ex. 5.295] | 254 nM | 8 nM
COc1cccc(-c2ccc(OC)c(F)c2C(=O)N2CCC[C@@]2(C)c2nc3c(C)c(Cl)ccc3[nH]2)c1 [Ex. 5.296] | 31 nM | 25 nM
COc1ccc(-c2ccc(OC)c(F)c2C(=O)N2CCC[C@@]2(C)c2nc3c(C)c(Cl)ccc3[nH]2)cc1 [Ex. 5.297] | 57 nM | 41 nM
COc1ccc(-c2ccccc2F)c(C(=O)N2CCC[C@@]2(C)c2nc3c(C)c(Cl)ccc3[nH]2)c1F [Ex. 5.298] | 21 nM | 15 nM

Compound | IC50 (human orexin-2 receptor) | IC50 (human orexin-1 receptor)
COc1ccc(-c2ccc(F)cc2)c(C(=O)N2CCC[C@@]2(C)c2nc3ccc(Cl)c(C)c3[nH]2)c1F [Ex. 5.299] | 21 nM | 17 nM
COc1ccc(-c2cccc(F)c2)c(C(=O)N2CCC[C@@]2(C)c2nc3ccc(Cl)c(C)c3[nH]2)c1F [Ex. 5.300] | 18 nM | 10 nM
COc1ccc(-c2cccc(C)c2)c(C(=O)N2CCC[C@@]2(C)c2nc3ccc(Cl)c(C)c3[nH]2)c1F [Ex. 5.301] | 16 nM | 24 nM
COc1ccc(-c2ccc(C)cc2)c(C(=O)N2CCC[C@@]2(C)c2nc3ccc(Cl)c(C)c3[nH]2)c1F [Ex. 5.302] | 42 nM | 28 nM
COc1ccc(-c2cccc(C(F)(F)F)c2)c(C(=O)N2CCC[C@@]2(C)c2nc3ccc(Cl)c(C)c3[nH]2)c1F [Ex. 5.303] | 21 nM | 29 nM
COc1ccc(-c2ccc3c(c2)OCO3)c(C(=O)N2CCC[C@@]2(C)c2nc3c(C)c(Cl)ccc3[nH]2)c1F [Ex. 5.304] | 86 nM | 19 nM
COc1ccc(-c2ccc(C(F)(F)F)cc2)c(C(=O)N2CCC[C@@]2(C)c2nc3ccc(Cl)c(C)c3[nH]2)c1F [Ex. 5.305] | 41 nM | 35 nM
COc1ccc(-c2ccc(OC(F)(F)F)cc2)c(C(=O)N2CCC[C@@]2(C)c2nc3c(C)c(Cl)ccc3[nH]2)c1F [Ex. 5.306] | 69 nM | 33 nM
COc1ccc(-c2cccc(C#N)c2)c(C(=O)N2CCC[C@@]2(C)c2nc3c(C)c(Cl)ccc3[nH]2)c1F [Ex. 5.307] | 49 nM | 20 nM
COc1ccc(-c2ccc(C#N)cc2)c(C(=O)N2CCC[C@@]2(C)c2nc3c(C)c(Cl)ccc3[nH]2)c1F [Ex. 5.308] | 122 nM | 21 nM
COc1ccc(-c2cccc(OC(F)(F)F)c2)c(C(=O)N2CCC[C@@]2(C)c2nc3c(C)c(Cl)ccc3[nH]2)c1F [Ex. 5.309] | 21 nM | 23 nM
Cc1cc(C(=O)N2CCC[C@@]2(C)c2nc3c(C)cc(Br)cc3[nH]2)c(-c2ccccc2)cn1 [Ex. 5.310] | 70 nM | 32 nM
C=C1C[C@@H](c2nc3cc(OC)ccc3[nH]2)N(C(=O)c2nc(C)sc2-c2ccc(OC)cc2)C1 [Ex. 6.2] | 17 nM | 223 nM
C=C1C[C@@H](c2nc3cc(OC)ccc3[nH]2)N(C(=O)c2nc(C)sc2-c2ccccc2)C1 [Ex. 6.3] | 18 nM | 243 nM
C=C1C[C@@H](c2nc3cc(OC)ccc3[nH]2)N(C(=O)c2nccnc2-c2ccc(C)cc2)C1 [Ex. 6.4] | 118 nM | 2510 nM
C=C1C[C@@H](c2nc3cc(OC)ccc3[nH]2)N(C(=O)c2nc(C)sc2-c2ccc(Cl)cc2)C1 [Ex. 6.5] | 19 nM | 216 nM
C=C1C[C@@H](c2nc3cc(OC)ccc3[nH]2)N(C(=O)c2nccnc2-c2cccc(C)c2)C1 [Ex. 6.6] | 52 nM | 477 nM
C=C1C[C@@H](c2nc3cc(OC)ccc3[nH]2)N(C(=O)c2nc(C)sc2-c2cccc(C)c2)C1 [Ex. 6.7] | 3 nM | 15 nM
C=C1C[C@@H](c2nc3cc(OC)ccc3[nH]2)N(C(=O)c2nc(C)sc2-c2cccc(Cl)c2)C1 [Ex. 6.8] | 7 nM | 21 nM

Compound | IC50 (human orexin-2 receptor) | IC50 (human orexin-1 receptor)
C=C1C[C@@H](c2nc3cc(OC)ccc3[nH]2)N(C(=O)c2nc(C)sc2-c2ccc(C)c(C)c2)C1 [Ex. 6.9] | 4 nM | 7 nM
C=C1C[C@@H](c2nc3cc(OC)ccc3[nH]2)N(C(=O)c2nc(C3CC3)sc2-c2ccccc2)C1 [Ex. 6.10] | 81 nM | 206 nM
C=C1C[C@@H](c2nc3cc(OC)ccc3[nH]2)N(C(=O)c2cnc(C)nc2-c2cccc(C)c2)C1 [Ex. 6.11] | 56 nM | 135 nM
C=C1C[C@@H](c2nc3cc(OC)ccc3[nH]2)N(C(=O)c2cc(C)ccc2-n2nccn2)C1 [Ex. 6.12] | 6 nM | 317 nM
C=C1C[C@@H](c2nc3cc(OC)ccc3[nH]2)N(C(=O)c2ccccc2-n2nccn2)C1 [Ex. 6.13] | 17 nM | 155 nM
C=C1C[C@@H](c2nc3cc(OC)ccc3[nH]2)N(C(=O)c2ccccc2-c2cccc(C)c2)C1 [Ex. 6.14] | 12 nM | 87 nM
C=C1C[C@@H](c2nc3cc(OC)ccc3[nH]2)N(C(=O)c2ccccc2-c2ccc(C)cc2)C1 [Ex. 6.15] | 37 nM | 298 nM
C=C1C[C@@H](c2nc3cc(OC)ccc3[nH]2)N(C(=O)c2cnc(C)nc2-c2ccccc2)C1 [Ex. 6.16] | 151 nM | 307 nM
C=C1C[C@@H](c2nc3cc(OC)ccc3[nH]2)N(C(=O)c2cncnc2-c2cccc(C)c2)C1 [Ex. 6.17] | 47 nM | 308 nM
C=C1C[C@@H](c2nc3cc(OC)ccc3[nH]2)N(C(=O)c2cc(F)ccc2-n2nccn2)C1 [Ex. 6.18] | 29 nM | 1530 nM
C=C1C[C@@H](c2nc3cc(OC)ccc3[nH]2)N(C(=O)c2c(F)cccc2-n2nccn2)C1 [Ex. 6.19] | 61 nM | 1530 nM
C=C1C[C@@H](c2nc3cc(OC)ccc3[nH]2)N(C(=O)c2ccccc2-c2nc(C)no2)C1 [Ex. 6.20] | 49 nM | 1750 nM
C=C1C[C@@H](c2nc3cc(OC)ccc3[nH]2)N(C(=O)c2ccccc2-c2csc(C)n2)C1 [Ex. 6.21] | 76 nM | 1970 nM
C=C1C[C@@H](c2nc3cc(OC)ccc3[nH]2)N(C(=O)c2nc(C)sc2-c2ccc(Br)cc2)C1 [Ex. 6.22] | 19 nM | 410 nM
C=C1C[C@@H](c2nc3cc(OC)ccc3[nH]2)N(C(=O)c2nc(C)sc2-c2cccc(Cl)c2Cl)C1 [Ex. 6.23] | 67 nM | 452 nM
C=C1C[C@@H](c2nc3cc(OC)ccc3[nH]2)N(C(=O)c2nc(C)sc2-c2ccc(F)c(Br)c2)C1 [Ex. 6.24] | 17 nM | 53 nM
C=C1C[C@@H](c2nc3cc(OC)ccc3[nH]2)N(C(=O)c2nc(C3CC3)sc2-c2ccc(C)c(F)c2)C1 [Ex. 6.25] | 52 nM | 154 nM
C=C1C[C@@H](c2nc3cc(OC)ccc3[nH]2)N(C(=O)c2nc(C3CC3)sc2-c2cccc(C)c2)C1 [Ex. 6.26] | 24 nM | 26 nM
C=C1C[C@@H](c2nc3cc(OC)ccc3[nH]2)N(C(=O)c2nc(N(C)C)sc2-c2ccc(C)c(C)c2)C1 [Ex. 6.27] | 9 nM | 5 nM
